# Calls of active or inactive are those of the source.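 Rule for the calls: active = compounds giving half or more protection of infected cells from virus-caused growth loss, again on retest; inactive = the rest.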 Where a SMILES comes first, the peptide text is derived from it. The star is where a group is joined. Boc = CC(C)(C)OC(=O)*; OBn = c1ccc(CO*)cc1
# System: CEM cells HIV-1 protection, formazan growth assay
# Assay: NCI AIDS Antiviral Assay
# Conditions: for IC50: measured here: growth of uninfected CEM cells
# Method in brief: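 Human CEM cells, uninfected and HIV-1-infected, exposed to five drug concentrations; growth measured by soluble formazan assay and scored as percent protection from infection, with protecting compounds retested.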
SMILES,EC50 [µM],IC50 [µM],outcome
CC(=O)Oc1cc(OC(C)=O)c(CC=C(C)C)c(-c2cc3ccc(OC(C)=O)c(C/C=C(\C)CCC=C(C)C)c3o2)c1,> 4.57,> 4.57,
Cc1ccc(S(=O)(=O)N2/C(=C/c3ccccc3)C(=O)c3ccccc3-c3ccccc32)cc1,> 11.5,> 11.5,
CC1N=C(SCc2c(F)cccc2Cl)N2C(C)N=C(SCc3c(F)cccc3Cl)N12 (stereo not given),> 20.4,> 20.4,
O/N=C(/C(Cl)=C(Cl)Cl)C(Cl)Cl,> 200,33.1,
C=CC[C@]12C[C@@H](C(=O)OC)N(C(=O)OC)[C@H]1N(S(=O)(=O)c1ccccc1)c1ccccc12,> 200,74.1,
Nc1ccc(S(=O)Cc2ccc(C(=O)O)cc2[N+](=O)[O-])cc1 (stereo not given),> 776,> 776,
COc1ccc(C2(OC)Oc3cc(OC)ccc3C(=O)C2(O)OC)cc1 (stereo not given),> 200,11,
CC1(Cl)C2c3ccccc3C(c3ccccc32)C1(C)Cl (stereo not given),> 24,> 24,
O=C(/C=C/c1ccncc1)c1ccccc1,> 324,6.03,
NC(CSS(=O)(=O)O)=NCCCCOc1ccccc1,> 200,91.2,
COc1c(N2CCCCC2)c2c(=O)c3ccccc3oc2c2cc(C)oc12,> 200,11.2,
O=P1(CCc2ccc(Cl)cc2)CC(Br)C(Br)C1 (stereo not given),> 631,38,
CC(C)c1cc(C(C)C)c(S(=O)(=O)N=[N+]=[N-])c(C(C)C)c1,> 17,> 17,
CC1CSC(=S)N1C(=O)N1C(=S)SCC1C (stereo not given),,,inactive
O=C1[C@@H]2[C@@H](c3ccccc3)[C@]2(Cl)C(=O)[C@H]2[C@H](c3ccccc3)[C@@]12Cl,,,inactive
CC(C)=CCC/C(C)=C/CC/C(C)=C/Cc1c(O)c2ccccc2oc1=O,> 186,95.5,
CCCCn1c2c(c3ccccc3c1=O)C(=O)c1ccccc1-2,> 69.2,33.9,
Cc1cc(C)c2c(c1)C/C(=C\c1cccc(C)c1C(=O)O)C2=O,> 200,129,
COc1ccc(CCN2C(=O)c3cccc4c(Br)ccc(c34)C2=O)cc1,> 200,105,
COC(=O)[C@@H]1CN(C(=O)c2ccccc2)C(=O)N1,> 200,> 200,
Cn1cnc([N+](=O)[O-])c1Sc1nccc(=O)[nH]1,> 977,> 200,
CCCCSc1cc(Cc2cc(C)ccc2O)c(O)c(Cc2cc(C)ccc2O)c1,> 200,10,

SMILES,EC50 [µM],IC50 [µM],outcome
COc1cc2c(c3oc(=O)ccc13)[C@@H](OC(=O)C13CCC(C)(C(=O)O1)C3(C)C)[C@@H](OC(=O)C13CCC(C)(C(=O)O1)C3(C)C)C(C)(C)O2 (stereo not given in full),0.324,> 200,
CC(=O)/C=C/c1ccc(C)cc1,> 63.1,> 63.1,
COc1ccc(/C=[N+](\[O-])[C@H](COCc2ccccc2)c2ccccc2)cc1,> 72.4,> 72.4,
Cc1cc(C)c(C2CC(O)C(CO)O2)cc1C (stereo not given),> 200,> 200,
Cn1cc(C(=O)C[n+]2ccccc2)c2ccccc21,> 224,81.3,
O=C(CC(=O)c1cccc([N+](=O)[O-])c1)C(=O)Nc1nc([N+](=O)[O-])cs1,> 20,> 20,
COc1cc(/C=C2/Cc3ccccc3C2=O)ccc1O,> 107,55,
CC(=O)[O-].Cc1ccnc(NS(=O)(=O)c2ccc(N=Cc3ccccc3[O-])cc2)n1.Cc1ccnc(NS(=O)(=O)c2ccc(N=Cc3ccccc3[O-])cc2)n1.[Cu+2],> 200,5.62,
CCOC(=O)CCC(NC(=O)c1ccc(Nc2nc3ccccc3nc2C(=O)OCC)s1)C(=O)OCC (stereo not given),> 200,> 200,
Cc1ccc(SCc2nc3ccccc3c(C)[n+]2[O-])cc1,9.33,49,
Brc1ccc(C[N+]23CN4CN(CN(C4)C2)C3)cc1,,,inactive
O=c1[nH]c(=O)n(COCc2ccccc2)c2ccsc12,,,inactive
CC(=O)OCC1C(=O)OCC1C(=O)N1Cc2cc3ccccc3nc2C1 (stereo not given),> 20,0.331,
CCNC12CCC(C1)C(C)(C)C2=O (stereo not given),> 200,> 200,
Nc1n[nH]c2c(C(=O)Nc3ccc(Cl)cc3)c(N)n(N)c(=O)c12,> 200,> 200,
CCOP(=O)(OCC)OP(=O)(OCC)OCC,> 871,> 871,
Cc1ccc2c(c1)Nc1ccccc1P2(=O)O,> 200,> 200,
C=Cc1c2[n-]c(c1C)/C=c1\[n-]/c(c(C)c1C=C)=C\c1[n-]c(c(CCC(=O)O)c1C)/C=c1\[n-]/c(c(C)c1CCC(=O)O)=C\2.[Fe+4],> 14.5,> 14.5,
COC(=O)c1c(C#N)[nH]c(-c2ccsc2)c1C(=O)OC,> 200,52.5,
Cn1c2c(c3ccccc31)CCN(CCN1CCN(c3ccccc3)CC1)C2=O,,,inactive
CC1(Br)C(=O)NC(=O)N(C2C=CC(CO)O2)C1N=[N+]=[N-] (stereo not given),0.724,7.24,
CCCc1cc(=O)oc2c3c(c4c(c12)OC(C)(C)CC4)OC(C)[C@H](C)[C@@H]3O (stereo not given in full),14.8,15.1,

SMILES,EC50 [µM],IC50 [µM],outcome
O=C(N/C(=C\c1ccc(/C=C(\NC(=O)c2ccccc2)c2nc3cc(Cl)ccc3[nH]2)cc1)c1nc2cc(Cl)ccc2[nH]1)c1ccccc1,,,inactive
CC(C)=CCc1ccc2[nH]c3c(c2c1)C(=O)C(=O)C(C)=C3C(O)C(C)O (stereo not given),> 200,1.95,
Cc1nc(N)nc(N)c1-c1ccc(Cl)c(Cl)c1,> 200,,
CC(C)C(NC(=O)OC(C)(C)C)C(=O)N1CCCC1C(=O)OCc1ccccc1 (stereo not drawn) (Boc-Val-Pro-OBn; configuration not given here),> 200,123,
COc1cccc2c1C(=O)OC2c1cccc2ccccc12 (stereo not given),,,inactive
CC(C)C1=CC23CCC4C(C)(C(=O)O)CCCC4(C)C2CC1C1C(=O)N(c2ccccc2)C(=O)C13 (stereo not given),> 52.5,> 52.5,
Cc1ccc(S(=O)(=O)Oc2nc3nc4ccccc4nc3nc2OS(=O)(=O)c2ccc(C)cc2)cc1,> 200,102,
CC(=O)OC1C(COC(N)=O)OC(n2c(-c3ccc(C)cc3)cc(-c3ccccc3)c(C#N)c2=O)C(OC(C)=O)C1OC(C)=O (stereo not given),> 11.5,> 11.5,
N#C/C(=C\c1ccc(Cl)cc1)c1ccccc1[N+](=O)[O-],> 200,120,
Clc1ccc(C(Cc2cccc(Cl)c2)c2c(Cl)nc(N3CCNCC3)nc2Cl)cc1 (stereo not given),> 200,17.4,
N#CC12CC=C(c3ccccc3)N=C1NC(c1ccccc1)=CC2 (stereo not given),> 200,23.4,
N/C(=N\N=C\c1cccs1)NO,> 708,> 708,
COC(=O)c1ccccc1CC1Cc2cccc(C)c2C1=O (stereo not given),> 200,53.7,
COc1cccc(C2N3CCCCC3[C@@H]3c4[nH]c5ccccc5c4CCN23)c1OC (stereo not given in full),> 33.9,> 33.9,
Nc1c(Br)cc(/C=C2\C=Cc3ccccc32)cc1Br,> 10,> 10,
O=c1[nH]c(=O)n(C2CC(O)C(CO)O2)cc1NN=NCCc1ccccc1 (stereo not given),> 200,> 200,
CCC1CN2CCC3(C(=O)Nc4ccccc43)C2CC1/C(=C/OC)C(=O)OC (stereo not given),,,inactive
CC(=O)NC1C(CO)OC(n2cnc([N+](=O)[O-])c2C(N)=O)C1O (stereo not given),> 200,> 200,
O=C(O)C1[C@@H](C(=O)O)C1(Br)CBr (stereo not given in full),> 200,> 200,
OC(Cc1ccc2ccccc2c1)CN1CCC(c2ccccc2)CC1 (stereo not given),> 93.3,37.2,
CCOC(=O)CCC1(C(=O)OC)CCCC1=O (stereo not given),> 1020,> 1020,
NC(=O)c1[nH]nc(C2OC(CO)C(O)C2O)c1O (stereo not given),> 955,0.309,

SMILES,EC50 [µM],IC50 [µM],outcome
COC(=O)C1ON(C(=O)c2ccccc2)C(C)C2OC12 (stereo not given),> 324,> 324,
Nc1ccc2[se]nc3c2c1C(=O)c1ccccc1-3,> 6.76,> 6.76,
O=C(O)c1cccc(S(=O)(=O)NN2C(=O)CSC2c2ccc(Cl)cc2Cl)c1 (stereo not given),> 200,35.5,
O=c1[nH]cc(CN2CCOCC2)c(=O)[nH]1,> 617,> 617,
CCOC(=O)C1(Br)CCN(S(=O)(=O)c2ccc(C)cc2)c2ccccc2C1=O (stereo not given),> 200,1.51,
COc1cc(C(=C2SCCS2)c2nccc3cc(OC)c(OC)cc23)c([N+](=O)[O-])cc1OC,,,inactive
O=c1[nH]c2[nH]c(-c3ccc(Br)cc3)cc2c2ccccc12,> 200,> 200,
CN(C)c1ccc(-c2nc3c(=O)n(C)c(=O)n(C)c3nc2-c2ccc(N(C)C)cc2)cc1,> 200,126,
CC(=O)/C=C(/C=N/O)c1ccccc1,> 200,> 200,
COc1ccc2ccnc(Cc3ccc(OCc4ccccc4)c(OC)c3)c2c1,,,inactive
O=c1n(-c2ccccc2)c(=O)n2n1C1CCC2CC1,> 200,> 200,
S=C1c2cc(Cl)ccc2NC(=NC2CCCC2)C2CSCN12 (stereo not given),> 200,33.9,
Cc1cc(Cl)ccc1N=C1NC(=O)C(CC(=O)Nc2ccc([N+](=O)[O-])cc2[N+](=O)[O-])S1 (stereo not given),> 77.6,67.6,
Cc1ccc(NC(=O)NC23CC4CC(CC(F)(C4)C2)C3)cc1,> 61.7,> 61.7,
CCCCNC(=O)OCC(C)(CCC)COC(N)=O (stereo not given),> 200,148,
Cn1nc(-c2ccccc2)c(C(=O)/C=C/c2ccc(Cl)cc2)c(N2CCCC2)c1=O,> 15.1,10.7,
COc1ccc(/C=C/C(=O)c2ccc3c(c2)OCO3)cc1OC,> 43.7,20.9,
CCOP(=O)(OCC)C1CCCCOC1=O (stereo not given),,,inactive
Cc1nnc2c3nnc(C)n3c3ccccc3n12,,,inactive
NC(=O)NC1=NCCC(=O)N1CCc1c[nH]c2ccccc12,> 200,12.3,
Clc1cc(Cc2cc(Cl)c(Cl)c3c2OCOC3)c2c(c1Cl)COCO2,,,inactive

# From PubChem BioAssay AID179 (DTP/NCI, 2004)
